Measured values: the supplement of paper PMC10627819

Tests used:
B. subtilis 168 [1] = assay: fitness (endpoint OD595 vs no drug) (fraction); higher = more growth
Method in brief: (§1)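 Cultures at OD595 0.01 were dispensed into 384-well plates in TSB, LB Lennox or CY and incubated at 37 °C. Every 30 min for 14 h, OD595 was read and corrected by the first reading. Fitness is the optical density at entry into stationary phase relative to the robust mean of no-drug control wells, capped at 1.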

S. aureus DSM 20231 [2] = assay: as above
Method in brief: as §1

S. aureus Newman [3] = assay: as above
Method in brief: as §1

S. pneumoniae D39V [4] = assay: as above
Method in brief: as §1

B. subtilis 168 [5] = assay: Bliss interaction score (quartile over a dose matrix) (fitness difference); higher = more antagonism (negative = synergy)
Method in brief: (§2)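 The Bliss score is observed minus expected fitness under the product model, reported as quartiles over technical, biological and donor/recipient replicates. Fitness is the OD595 at entry into stationary phase divided by the plate's robust no-drug mean and capped at 1. Single-drug fitness was inferred from combination data.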

S. aureus DSM 20231 [6] = assay: as above
Method in brief: as §2

S. aureus Newman [7] = assay: as above
Method in brief: as §2

S. pneumoniae D39V [8] = assay: as above
Method in brief: as §2
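Throughout, for Bliss interaction score (quartile over a dose matrix): first quartile when negative (synergy) and third quartile when positive (antagonism).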

CO/N=C(\C(=O)N[C@@H]1C(=O)N2C(C(=O)O)=C(COC(C)=O)CS[C@H]12)c1csc(N)n1 [Cefotaxime] + Cc1ncc([N+](=O)[O-])n1CCO [Metronidazole]
fitness, one replicate
Conditions | partner 0.625 µg/mL | partner 0.781 µg/mL | partner 1.25 µg/mL | partner 1.562 µg/mL | partner 2.5 µg/mL | partner 3.124 µg/mL
B. subtilis 168 [1], first compound 0.00775 µg/mL | 0.871 | – | 0.887 | – | 0.851 | –
B. subtilis 168 [1], first compound 0.0155 µg/mL | 0.728 | – | 0.672 | – | 0.707 | –
B. subtilis 168 [1], first compound 0.031 µg/mL | 0.553 | – | 0.576 | – | 0.594 | –
S. aureus Newman [3], first compound 0.039 µg/mL | 0.888 | – | 0.794 | – | 0.817 | –
S. aureus Newman [3], first compound 0.078 µg/mL | – | 0.714 | – | 0.756 | – | 0.788
S. aureus Newman [3], first compound 0.156 µg/mL | – | 0.492 | – | 0.486 | – | 0.529
S. aureus Newman [3], first compound 0.312 µg/mL | 0.248 | 0.305 | 0.311 | 0.397 | 0.329 | 0.361
S. aureus Newman [3], first compound 0.625 µg/mL | – | 0.0599 | – | 0.0931 | – | 0.0887
S. aureus Newman [3], first compound 1.25 µg/mL | – | 0.0419 | – | 0.0637 | – | 0.07
S. aureus Newman [3], first compound 2.5 µg/mL | – | 0.0362 | – | 0.0976 | – | 0.0571

fitness
Conditions | partner 0.625 µg/mL | partner 1.073 µg/mL | partner 1.25 µg/mL | partner 2.145 µg/mL | partner 2.5 µg/mL | partner 4.29 µg/mL | partner 5 µg/mL
B. subtilis 168 [1], first compound 0.5 µg/mL | 0.299 | – | 0.289 | – | 0.278 | – | –
B. subtilis 168 [1], first compound 1 µg/mL | 0.152 | – | 0.135 | – | 0.146 | – | –
B. subtilis 168 [1], first compound 2 µg/mL | 0.0908 | – | 0.109 | – | 0.108 | – | –
S. aureus DSM 20231 [2], first compound 0.039 µg/mL | 0.825 | – | 0.888 | – | 0.963 | – | –
S. aureus DSM 20231 [2], first compound 0.078 µg/mL | 0.829 | – | 0.828 | – | 0.913 | – | –
S. aureus DSM 20231 [2], first compound 0.156 µg/mL | 0.689 | – | 0.745 | – | 0.813 | – | –
S. aureus DSM 20231 [2], first compound 0.312 µg/mL | 0.621 | – | 0.649 | – | 0.674 | – | –
S. aureus Newman [3], first compound 0.078 µg/mL | 0.767 | – | 0.779 | – | 0.792 | – | –
S. aureus Newman [3], first compound 0.156 µg/mL | 0.663 | – | 0.705 | – | 0.674 | – | –
S. pneumoniae D39V [4], first compound 0.0018 µg/mL | – | 0.976 | 0.963 | 0.928 | 0.996 | 0.972 | 0.975
S. pneumoniae D39V [4], first compound 0.0035 µg/mL | – | 0.987 | 0.979 | 0.92 | 0.975 | 0.939 | 0.973
S. pneumoniae D39V [4], first compound 0.007 µg/mL | – | 0.95 | 0.961 | 0.89 | 0.99 | 0.933 | 0.953

Conditions | Bliss interaction score
B. subtilis 168 [5] | 0.0904
S. aureus DSM 20231 [6] | -0.0403
S. aureus Newman [7] | 0.0437
S. pneumoniae D39V [8] | 0.0575
